# Measured values as given in the supplement of paper PMC11208160.
# Assay: recombinant UMI read abundance after kanamycin selection (control-corrected) (log10(CPM+1)); higher = more efficient recombination; extreme values may be limits of the assay; sequences stand for … in AGTGCAGAGAAAATCGGCCAGTTTTCTCTGCCTGCAGTCCGCATGCCGTGGGACCCCTTGGGTTCTAACCTGTTGCCTAGATTTATGCAGCGGACTGCCTTTCTCCCAAAGTGATAAACCGG…AGGTTGGTTTCACT; site = the 11-nt donor
# Method in brief: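 Each donor and donor-binding-loop pair was tracked by a 12-nt UMI on a plasmid carrying a promoterless kanamycin gene. With a second plasmid supplying a fixed target and T7-inducible IS621 bridge recombinase, the pool was plated in Escherichia coli on IPTG (0.07 mM) plus kanamycin or unselected. Sequencing of recombinant UMIs across the donor–target junction gave counts expressed as log10(CPM+1) after replicate averaging and control-derived scaling.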
row,Sequence,recombinant UMI read abundance (log10)
1,GTAAATCCATGGACCGGTTTTCCCGGTAATCCGTATTTGGG (site GTAAATCCTCC),0.325
2,GTAATAACATGGACCGGTTTTCCCGGTAATCCGTATTTGGG (site GTAATAACTCC),0.656
3,GTAATCTCATGGACCGGTTTTCCCGGTAATCCGTATTTGTA (site GTAATCTCTTA),2.83
4,GTACATGCATGGACCGGTTTTCCCGGTAATCCGTATTTGGT (site GTACATGCTAC),1.43
5,GTACATGCATGGACCGGTTTTCCCGGTAATCCGTATTTGGT (site GTCCATGCTAC),0.0463
6,GTACATGCATGGACCGGTTTTCCCGGTAATCCGTATTTGGT (site GTGCATGCTAC),0.0209
7,GTACATGCATGGACCGGTTTTCCCGGTAATCCGTATTTGGT (site GTTCATGCTAC),0.184
8,GTACATTCATGGACCGGTTTTCCCGGTAATCCGTATTTGTG (site GTACATTCTCA),2.5
9,GTACGTACATGGACCGGTTTTCCCGGTAATCCGTATTTGAC (site GTAAGTACTGT),0.00784
10,GTACGTACATGGACCGGTTTTCCCGGTAATCCGTATTTGAC (site GTACGTACTGT),2.51
11,GTACGTACATGGACCGGTTTTCCCGGTAATCCGTATTTGAC (site GTAGGTACTGT),0.0679
12,GTACGTACATGGACCGGTTTTCCCGGTAATCCGTATTTGAC (site GTATGTACTGT),0.00913
13,GTACTCGCATGGACCGGTTTTCCCGGTAATCCGTATTTGCG (site GTAATCGCTCG),0.0162
14,GTACTCGCATGGACCGGTTTTCCCGGTAATCCGTATTTGCG (site GTACTCGCTCG),0.0142
15,GTACTCGCATGGACCGGTTTTCCCGGTAATCCGTATTTGCG (site GTAGTCGCTCG),0.00832
16,GTACTCGCATGGACCGGTTTTCCCGGTAATCCGTATTTGCG (site GTATTCGCTCG),0.00972
17,GTAGACGCATGGACCGGTTTTCCCGGTAATCCGTATTTGCG (site GTAGACGCTCG),2.33
18,GTAGACGCATGGACCGGTTTTCCCGGTAATCCGTATTTGCG (site GTAGCCGCTCG),0.0374
19,GTAGACGCATGGACCGGTTTTCCCGGTAATCCGTATTTGCG (site GTAGGCGCTCG),1.39
20,GTAGACGCATGGACCGGTTTTCCCGGTAATCCGTATTTGCG (site GTAGTCGCTCG),0.182
21,GTAGATTCATGGACCGGTTTTCCCGGTAATCCGTATTTGTT (site GAAGATTCTAA),0.559
22,GTAGATTCATGGACCGGTTTTCCCGGTAATCCGTATTTGTT (site GCAGATTCTAA),1.63
23,GTAGATTCATGGACCGGTTTTCCCGGTAATCCGTATTTGTT (site GGAGATTCTAA),0.98

row,Sequence,recombinant UMI read abundance (log10)
1,GTAGATTCATGGACCGGTTTTCCCGGTAATCCGTATTTGTT (site GTAGATTCTAA),3.02
2,GTAGCTGCATGGACCGGTTTTCCCGGTAATCCGTATTTGTG (site ATAGCTGCTCA),0.436
3,GTAGCTGCATGGACCGGTTTTCCCGGTAATCCGTATTTGTG (site CTAGCTGCTCA),0.54
4,GTAGCTGCATGGACCGGTTTTCCCGGTAATCCGTATTTGTG (site GTAGCTGCTCA),1.06
5,GTAGCTGCATGGACCGGTTTTCCCGGTAATCCGTATTTGTG (site TTAGCTGCTCA),0.0482
6,GTAGGATCATGGACCGGTTTTCCCGGTAATCCGTATTTGAC (site CTAGTATCTGT),0.851
7,GTAGGATCATGGACCGGTTTTCCCGGTAATCCGTATTTGAC (site GTAGGATCTGT),3.19
8,GTAGGCGCATGGACCGGTTTTCCCGGTAATCCGTATTTGAC (site GTAGGCGCTGT),1.9
9,GTAGGCGCATGGACCGGTTTTCCCGGTAATCCGTATTTGCG (site GTAGACGCTCG),2.78
10,GTAGGCGCATGGACCGGTTTTCCCGGTAATCCGTATTTGCG (site GTAGCCGCTCG),0
11,GTAGGCGCATGGACCGGTTTTCCCGGTAATCCGTATTTGCG (site GTAGGCGCTCG),1.47
12,GTAGGCGCATGGACCGGTTTTCCCGGTAATCCGTATTTGCG (site GTAGTCGCTCG),0.407
13,GTAGGGTCATGGACCGGTTTTCCCGGTAATCCGTATTTGTT (site GTAGGGTCTAA),2.38
14,GTAGGTACATGGACCGGTTTTCCCGGTAATCCGTATTTGGC (site GTAGGTACTGA),1.79
15,GTAGGTACATGGACCGGTTTTCCCGGTAATCCGTATTTGGC (site GTAGGTACTGC),2.38
16,GTAGGTACATGGACCGGTTTTCCCGGTAATCCGTATTTGGC (site GTAGGTACTGG),0.159
17,GTAGGTACATGGACCGGTTTTCCCGGTAATCCGTATTTGGC (site GTAGGTACTGT),1.53
18,GTAGGTACATGGACCGGTTTTCCCGGTAATCCGTATTTGTC (site GTAGGTACTGA),1.99
19,GTAGGTACATGGACCGGTTTTCCCGGTAATCCGTATTTGTC (site GTAGGTACTGC),0
20,GTAGGTACATGGACCGGTTTTCCCGGTAATCCGTATTTGTC (site GTAGGTACTGG),1.97
21,GTAGGTACATGGACCGGTTTTCCCGGTAATCCGTATTTGTC (site GTAGGTACTGT),1.35
22,GTAGTAGCATGGACCGGTTTTCCCGGTAATCCGTATTTGCG (site GTAGTAGCTCG),2.62
23,GTAGTAGCATGGACCGGTTTTCCCGGTAATCCGTATTTGCG (site GTAGTCGCTCG),0.72

row,Sequence,recombinant UMI read abundance (log10)
1,GTAGTAGCATGGACCGGTTTTCCCGGTAATCCGTATTTGCG (site GTAGTGGCTCG),1.53
2,GTAGTAGCATGGACCGGTTTTCCCGGTAATCCGTATTTGCG (site GTAGTTGCTCG),1.32
3,GTAGTATCATGGACCGGTTTTCCCGGTAATCCGTATTTGAC (site ATAGTATCTGT),3.09
4,GTAGTATCATGGACCGGTTTTCCCGGTAATCCGTATTTGAC (site CTAGTATCTGT),2.47
5,GTAGTATCATGGACCGGTTTTCCCGGTAATCCGTATTTGAC (site GTAGTATCTGT),3.41
6,GTAGTATCATGGACCGGTTTTCCCGGTAATCCGTATTTGAC (site TTAGTATCTGT),2.29
7,GTAGTATCATGGACCGGTTTTCCCGGTAATCCGTATTTGCC (site GTAGTATCTGG),2.55
8,GTAGTATCATGGACCGGTTTTCCCGGTAATCCGTATTTGGC (site CTAGTATCTGT),0.582
9,GTAGTATCATGGACCGGTTTTCCCGGTAATCCGTATTTGGC (site GTAGTATCTGC),3.51
10,GTAGTCGCATGGACCGGTTTTCCCGGTAATCCGTATTTGCG (site ATAGTCGCTCG),0.405
11,GTAGTCGCATGGACCGGTTTTCCCGGTAATCCGTATTTGCG (site CTAGTCGCTCG),0.145
12,GTAGTCGCATGGACCGGTTTTCCCGGTAATCCGTATTTGCG (site GAAGTCGCTCG),0.0146
13,GTAGTCGCATGGACCGGTTTTCCCGGTAATCCGTATTTGCG (site GCAGTCGCTCG),0.162
14,GTAGTCGCATGGACCGGTTTTCCCGGTAATCCGTATTTGCG (site GGAGTCGCTCG),0.0136
15,GTAGTCGCATGGACCGGTTTTCCCGGTAATCCGTATTTGCG (site GTAATCGCTCG),1.31
16,GTAGTCGCATGGACCGGTTTTCCCGGTAATCCGTATTTGCG (site GTACTCGCTCG),0.0126
17,GTAGTCGCATGGACCGGTTTTCCCGGTAATCCGTATTTGCG (site GTAGACGCTCG),0.714
18,GTAGTCGCATGGACCGGTTTTCCCGGTAATCCGTATTTGCG (site GTAGCCGCTCG),0.584
19,GTAGTCGCATGGACCGGTTTTCCCGGTAATCCGTATTTGCG (site GTAGGCGCTCG),0.0201
20,GTAGTCGCATGGACCGGTTTTCCCGGTAATCCGTATTTGCG (site GTAGTAGCTCG),0.489
21,GTAGTCGCATGGACCGGTTTTCCCGGTAATCCGTATTTGCG (site GTAGTCACTCG),1.24
22,GTAGTCGCATGGACCGGTTTTCCCGGTAATCCGTATTTGCG (site GTAGTCCCTCG),0.553
